US10591478B2, “Methods for molecular classification of fatty liver by high-throughput protein post-translational modifications” (ROSEMAN UNIVERSITY OF HEALTH SCIENCES, priority 2015, dated 2020)
Entries after “also recorded” stand apart in the source; their conditions may differ.

Tests used:
HepG2 cells = experiment: 1D Western blot of HepG2 total cell extracts with antibodies against O-GlcNAc; type: cell-based; conditions: HepG2, 100 μM PUGNAc, 48 hours
Protocol: HepG2 cells were maintained in DMEM media with 25 mM glucose and 10% fetal calf serum. HepG2 cells were treated for 48 hours with 100 μM PUGNAc (Cat. No. A7229, Sigma, St. Louis, Mo.). Total HepG2 cell extracts were collected and evaluated with 1D Western blots using antibodies against O-GlcNAc.
HepG2 cells were first lysed with M-Per lysis buffer (Pierce, Rockford, Ill., USA) in the presence of protease and phosphatase inhibitors. For cIEF immunoassays, total cell lysates were prepared in Premix G2 pH 5-8 separation gradient containing pI standards (ProteinSimple).
HepG2 total cell extracts were analyzed on 10% SDS-polyacrylamide gel. Secondary antibodies were purchased from LI-COR (Lincoln, Nebr., Cat. No. 92668070). Immunoblots were detected with the LI-COR's Odyssey CLx imaging system.

FOXO1 = experiment: cIEF immunoassay of FOXO1 pI distribution in HepG2 cells; type: cell-based; conditions: 48 hours
Protocol: A NanoPro 1000 cIEF system (Protein Simple, Santa Clara, Calif., USA) was employed for profiling protein PTM. Samples of 400 nl volume were separated by isoelectric focusing using the 96-capillary system, followed by immobilization of the proteins onto the inner capillary walls. Primary and secondary antibodies (Tables 2 and FIG. 6) were introduced into the capillaries, followed by chemiluminescence detection reagents. The incubation times were 110 and 55 min for primary and secondary antibodies, respectively. The separation time was 50 minutes at […]. All samples were loaded in triplicate into capillaries to evaluate the consistency of capillary-to-capillary measurement. Each experiment was performed in triplicate to ensure repeatability. A minimum of nine cIEF measurements were done for each protein per animal group. […]
HepG2 cells were maintained in DMEM media with 25 mM glucose and 10% fetal calf serum. […] Total HepG2 cell extracts were collected and evaluated with 1D Western blots using antibodies against O-GlcNAc.
HepG2 cells were transiently transfected with an expression vector that expressed FOXO1 with a Myc-DDK tag (Cat. No. RC200477, Origene, Rockville, Md.). […] HepG2 cells were treated for 48 hours with 500 μM glucosamine Total HepG2 cell extracts were collected and evaluated with 1D and 2D Western blots using antibodies against FLAG tag. […]

[1] = system: liver tissues (hepatic steatosis); experiment: Assessment of hepatic steatosis with CARS microscopy and Oil Red O histology; type: in vivo, mouse; conditions: C57BL/6J+F mice, fenofibrate diet (400 mg/kg per day) for 5 days
Protocol: (§1) C57BL/6 J and UPase1-TG mice were fed a lean diet that provides 4.6 kcal/g (22% by calorific value from fat, 23% from protein, and 55% from carbohydrates; PicoLab Mouse Diet, Catalog No 5058, LabDiet, Brentwood, Mo., USA). C57BL/6 J+LD mice were fed a lean diet for 16 weeks. C57BL/6 J+F mice were fed a lean diet supplemented with fenofibrate (400 mg/kg per day) for 5 days. C57BL/6 J+HFD mice were fed a high-fat diet that provides 5.24 kcal/g (60% from fat, 20% from protein, and 20% from carbohydrates) for 16 weeks (Catalog No D12492, Research Diets Inc, New Brunswick, N.J., USA). C57BL/6 J mice served as a control for C57BL/6 J+LD, UPase1-TG, and C57BL/6 J+F mice. On the other hand, C57BL/6 J+LD mice served as a control for C57BL/6 J+HFD mice. All animal studies were performed in conformity with the Public Health Service Policy on Humane Care and Use of Laboratory Animals and with the approval of the Animal Care and Use Committees at Nevada Cancer Institute, Desert Research Institute, and Touro University Nevada.

PFK1 = experiment: cIEF immunoassay PTM profile of PFK1 in liver tissues; type: in vivo, mouse; conditions: C57BL/6J+F liver vs control C57BL/6J
Protocol: as §1
(§2) Approximately 500 mg of frozen liver tissues was added to 300 μl of RIPA buffer (Cat. No. 8990, Life Technologies, Grand Island, N.Y. 14702) containing proteinase and phosphatase inhibitors and homogenized twice at 6 seconds duration. […]

LCAT = experiment: cIEF immunoassay PTM profile of LCAT in liver tissues; type: in vivo, mouse
Protocol: as §1, §2

HMGCS2 = experiment: cIEF immunoassay PTM profile of HMGCS2 in liver tissues; type: in vivo, mouse; conditions: C57BL/6J+F liver vs C57BL/6J
Protocol: as §1, §2

ChREBP = experiment: cIEF immunoassay PTM profile of ChREBP in liver tissues; type: in vivo, mouse; conditions: C57BL/6J+F liver vs control C57BL/6J
Protocol: as §1, §2

LCAD = experiment: cIEF immunoassay PTM profile of LCAD in liver tissues; type: in vivo, mouse; conditions: C57BL/6J+F liver vs control C57BL/6J
Protocol: as §1, §2

Akt = experiment: cIEF immunoassay phosphorylation profile of Akt in liver tissues; type: in vivo, mouse; conditions: C57BL/6J+F liver vs C57BL/6J
Protocol: as §1, §2

ERK1/2 = experiment: cIEF immunoassay phosphorylation profile of ERK1/2 in liver tissues; type: in vivo, mouse; conditions: C57BL/6J+F liver vs control C57BL/6J
Protocol: as §1, §2

FLAG-tagged FOXO1 = experiment: 2D Western blot of FLAG-tagged FOXO1 in HepG2 cells; type: cell-based; conditions: HepG2 transfected with FLAG-tagged FOXO1, 500 μM glucosamine, 48 hours
Protocol: HepG2 cells were transiently transfected with an expression vector that expressed FOXO1 with a Myc-DDK tag (Cat. No. RC200477, Origene, Rockville, Md.). Transfection reagent was purchased from Life Technologies (Lipofectamine 2000, Cat. No. 11668-019, Grand Island, N.Y. 14702). HepG2 cells were treated for 48 hours with 500 μM glucosamine Total HepG2 cell extracts were collected and evaluated with 1D and 2D Western blots using antibodies against FLAG tag.
2D Western blots of HepG2 total protein extracts were performed by Kendrick Laboratories (Madison, Wis.). Total protein extracts was diluted with 100 ul of SDS Boiling Buffer and microdialyzed overnight using 6-8,000 MWCO membrane at 4° C. Samples were then lyophilized and redissolved to 3.33 mg/ml in diluted SDS boiling Buffer:Urea Sample Buffer before loading. A total of 500 μg of total protein extracts or 150 μl was loaded for isoeletric focusing. Carrier ampholine method of isoelectric focusing was carried out in a glass tube of inner diameter 3.3 mm using 2.0% pH 4-8 mix Servalytes (Serva, Heidelberg, Germany) for 20,000 volt-hrs. After equilibration for 10 minutes in 10% glycerol, 50 mM dithiothreitol, 2.3% SDS and 0.0625 M tris, pH 6.8, each tube gel was sealed to the top of a stacking gel that overlaid a 10% acrylamide slab gel. SDS slab gel electrophoresis was carried out for about 5 hours at 25 mA/gel. […]

CC(=O)N[C@H]1/C(=N/OC(=O)Nc2ccccc2)O[C@H](CO)[C@@H](O)[C@@H]1O [PUGNAc]
overall protein O-linked glycosylation profile of HepG2 total cell extract (HepG2 cells): increased | new FOXO1 peak, pI (FOXO1; HepG2, 100 μM PUGNAc): 8.25 pI

CC(C)OC(=O)C(C)(C)Oc1ccc(C(=O)c2ccc(Cl)cc2)cc1 [fenofibrate]
Fatty liver classification [1]: severe microvesicular steatosis | reduction of phosphorylated PFK-1 isoform, areas under the curve (PFK1): ~10 folds | LCAT observed pI value (LCAT; C57BL/6J+F liver): 5.8 pI | glycosylated LCAT isoforms, folds lower (LCAT; C57BL/6J+F liver vs C57BL/6J): ~10 folds | PTM increase for HMGCS2, areas under the curve from pI 5.7 to 6.4 (HMGCS2): 2 folds | reduction of phosphorylated ChREBP isoforms (ChREBP): 60% | glycosylated LCAD isoform, folds higher, areas under the curve (LCAD): 2 folds | Akt phosphorylation level, lower compared to control (Akt): approximately 30% | increase of ERK1/2 phosphorylated isoforms, areas under the curve (ERK1/2): ~30%

N[C@H]1C(O)O[C@H](CO)[C@@H](O)[C@@H]1O (stereo partly shown) [glucosamine]
FOXO1 peaks in cIEF, pI (FOXO1; HepG2, 500 μM glucosamine): > 7.5 pI | FLAG-tagged FOXO1 pI on 2D Western blot (FLAG-tagged FOXO1): shift to FLAG-tagged FOXO1 toward basic pI values; also recorded: additional gel spot at a basic pI value
